ChEMBL document CHEMBL1201862, “PubChem BioAssay data set” (2004)
Active and inactive are the calls of the source.

Tests used:
[1] = biological target: Glyceraldehyde-3-phosphate dehydrogenase (Homo sapiens, UniProt P04406)
[2] = biological target: T1, Bcl-2-related protein A1 (Mus musculus, UniProt Q07440); experiment: small-molecule antagonists of Bfl-1/BH3 interaction – biochemical, TR-FRET, mouse Bfl-1, confirmation (AID 621);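 also: TR-FRET binding of GST-Bfl-1 to FITC-labelled Bid peptide via terbium antibody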
T1 sequence (Q07440 whole entry): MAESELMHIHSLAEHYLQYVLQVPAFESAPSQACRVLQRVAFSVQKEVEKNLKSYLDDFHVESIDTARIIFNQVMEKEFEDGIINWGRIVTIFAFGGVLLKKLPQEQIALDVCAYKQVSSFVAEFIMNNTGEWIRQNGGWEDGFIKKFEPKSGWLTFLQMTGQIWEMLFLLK

[3] = biological target: T1, Bcl-2-related protein A1; experiment: Bfl-1 binding inhibitors, SAR follow-up, biochemical, fluorescence polarization (AID 1070)
[4] = biological target: Epstein-Barr nuclear antigen 1 (Epstein-Barr virus (strain B95-8) (HHV-4) (Human herpesvirus 4), UniProt P03211); experiment: inhibition of EBV nuclear antigen 1 DNA binding – biochemical, fluorescence polarization, 1536-well, dose response (AID 2381); set-up: species or system human gammaherpesvirus 4;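 also: fluorescence polarization of a Cy5 DNA probe bound by EBNA-1 protein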
Sequence of Epstein-Barr nuclear antigen 1 (P03211 whole entry): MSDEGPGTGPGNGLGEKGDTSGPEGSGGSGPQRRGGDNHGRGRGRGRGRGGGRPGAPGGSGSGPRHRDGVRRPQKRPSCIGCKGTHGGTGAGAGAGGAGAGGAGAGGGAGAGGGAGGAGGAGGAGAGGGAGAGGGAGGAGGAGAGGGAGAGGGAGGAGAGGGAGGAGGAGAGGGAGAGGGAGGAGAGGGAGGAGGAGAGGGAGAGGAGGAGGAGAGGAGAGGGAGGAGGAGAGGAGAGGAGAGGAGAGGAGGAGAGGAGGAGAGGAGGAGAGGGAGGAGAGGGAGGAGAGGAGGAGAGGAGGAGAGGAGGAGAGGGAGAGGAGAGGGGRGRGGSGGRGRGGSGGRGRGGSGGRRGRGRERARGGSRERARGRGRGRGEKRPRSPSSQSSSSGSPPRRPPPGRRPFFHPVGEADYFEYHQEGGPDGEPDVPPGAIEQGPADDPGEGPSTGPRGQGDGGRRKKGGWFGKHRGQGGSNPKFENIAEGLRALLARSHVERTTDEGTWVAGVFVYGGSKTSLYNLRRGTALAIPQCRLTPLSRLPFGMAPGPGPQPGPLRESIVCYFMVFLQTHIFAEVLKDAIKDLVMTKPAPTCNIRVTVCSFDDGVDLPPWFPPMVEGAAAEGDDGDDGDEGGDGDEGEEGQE

[5] = biological target: Lytic switch protein BZLF1 (Epstein-Barr virus (strain B95-8) (HHV-4) (Human herpesvirus 4), UniProt P03206); experiment: inhibition of BZLF1 ZTA DNA binding – biochemical, fluorescence polarization, Epstein-Barr virus, 1536-well, counter-screen for EBNA-1 inhibitor project, dose response (AID 2377); set-up: species or system human gammaherpesvirus 4;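 also: fluorescence polarization of Cy5-labelled ZRE DNA probe bound by purified Zta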
Sequence of Lytic switch protein BZLF1 (P03206 whole entry): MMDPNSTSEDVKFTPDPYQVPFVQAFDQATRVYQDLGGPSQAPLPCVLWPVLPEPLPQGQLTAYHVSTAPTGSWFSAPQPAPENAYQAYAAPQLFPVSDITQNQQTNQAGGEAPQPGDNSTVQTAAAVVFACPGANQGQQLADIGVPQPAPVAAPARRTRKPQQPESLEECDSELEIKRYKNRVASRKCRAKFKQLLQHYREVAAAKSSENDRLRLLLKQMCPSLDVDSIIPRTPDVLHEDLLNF

[6] = luciferase reporter signal suppression in cells – H4 neuroglioma cells, luminescence, dose response (AID 1990); assay type: functional, cell-based
[7] = tested on: BJ; experiment: BJ-TERT fibroblast viability loss – cell-based, RAS-independent, luminescence, dose response (AID 1933); assay type: functional; settings: Homo sapiens
[8] = Luminescence Cell-Based Dose Response HTS to Identify Inhibitors of 5'UTR Stem-Loop Driven Prion Protein mRNA Translation in H4 Neuroglioblastoma Cells. [Related pubchem assays: 1827 (Project Summary), 1813 (Primary HTS)]; assay type: functional
[9] = alpha-synuclein stem-loop luciferase translation blockers – H4 neuroglioma cells, luminescence, confirmation (AID 1988); assay type: functional, cell-based
[10] = tested on: BJ; experiment: cells; assay type: functional, cell-based; settings: Homo sapiens
[11] = tested on: BJ; experiment: BJ-TERT-LT-ST fibroblast viability loss – cell-based, RAS-independent, luminescence, dose response (AID 1935); assay type: functional; settings: Homo sapiens;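 also: BJ fibroblasts immortalized with TERT plus LT and ST oncogenes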
[12] = DRD fibroblast viability loss – cell-based, non-viral oncogenic, luminescence, dose response (AID 1934); assay type: functional; settings: Homo sapiens
[13] = biological target: X-box-binding protein 1 (Homo sapiens, UniProt P17861); assay type: functional, Cricetulus griseus;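 also: confirmatory dose-response counter-screen serving a CHOP assay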
Sequence of X-box-binding protein 1 (P17861 whole entry): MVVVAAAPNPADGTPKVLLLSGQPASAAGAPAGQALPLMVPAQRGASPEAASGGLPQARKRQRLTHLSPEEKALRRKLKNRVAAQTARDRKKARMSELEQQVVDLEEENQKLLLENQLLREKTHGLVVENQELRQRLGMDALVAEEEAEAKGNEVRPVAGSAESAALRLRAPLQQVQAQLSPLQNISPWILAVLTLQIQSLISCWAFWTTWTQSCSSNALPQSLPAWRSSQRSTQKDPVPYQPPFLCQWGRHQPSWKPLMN

[14] = tested on: BJ; experiment: growth inhibition of engineered Ras-driven BJ cells – cell-based, alamar blue fluorescence, cherrypicked samples, dose response (AID 2631); assay type: functional; settings: Homo sapiens;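 also: confirmatory dose-response assay in RAS-dependent BJ fibroblasts engineered with TERT, LT and ST, with cytotoxicity read by fluorescence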
[15] = biological target: Intestinal-type alkaline phosphatase (Homo sapiens, UniProt P09923); experiment: Dose Response confirmation of uHTS hits from a small molecule inhibitors of human intestinal alkaline phosphatase via a luminescent assay. [Related pubchem assays (depositor defined):AID2544, AID2574]; assay type: functional
Sequence of Intestinal-type alkaline phosphatase (P09923 whole entry): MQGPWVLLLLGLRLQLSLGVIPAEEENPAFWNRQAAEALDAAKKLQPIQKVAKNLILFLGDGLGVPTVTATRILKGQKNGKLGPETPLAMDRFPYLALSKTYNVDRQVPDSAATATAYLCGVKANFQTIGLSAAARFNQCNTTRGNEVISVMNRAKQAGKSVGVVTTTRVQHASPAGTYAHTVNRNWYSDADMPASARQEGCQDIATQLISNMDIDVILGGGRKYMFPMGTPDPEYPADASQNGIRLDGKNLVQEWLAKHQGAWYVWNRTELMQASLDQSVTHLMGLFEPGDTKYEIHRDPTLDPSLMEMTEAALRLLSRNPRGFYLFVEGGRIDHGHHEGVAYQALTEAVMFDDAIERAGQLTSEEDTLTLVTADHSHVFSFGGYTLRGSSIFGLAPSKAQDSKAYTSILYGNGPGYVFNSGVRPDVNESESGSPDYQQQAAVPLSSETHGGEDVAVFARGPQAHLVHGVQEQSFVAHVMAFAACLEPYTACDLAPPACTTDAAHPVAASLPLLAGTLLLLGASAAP

[16] = biological target: T2, Leucine aminopeptidase (Plasmodium falciparum 3D7, UniProt Q8IL11); experiment: P. falciparum M17LAP inhibitors, primary screen, biochemical, fluorogenic H-Leu-NHMec substrate, 1536-well (AID 1619); assay type: functional
T2 sequence (Q8IL11 whole entry): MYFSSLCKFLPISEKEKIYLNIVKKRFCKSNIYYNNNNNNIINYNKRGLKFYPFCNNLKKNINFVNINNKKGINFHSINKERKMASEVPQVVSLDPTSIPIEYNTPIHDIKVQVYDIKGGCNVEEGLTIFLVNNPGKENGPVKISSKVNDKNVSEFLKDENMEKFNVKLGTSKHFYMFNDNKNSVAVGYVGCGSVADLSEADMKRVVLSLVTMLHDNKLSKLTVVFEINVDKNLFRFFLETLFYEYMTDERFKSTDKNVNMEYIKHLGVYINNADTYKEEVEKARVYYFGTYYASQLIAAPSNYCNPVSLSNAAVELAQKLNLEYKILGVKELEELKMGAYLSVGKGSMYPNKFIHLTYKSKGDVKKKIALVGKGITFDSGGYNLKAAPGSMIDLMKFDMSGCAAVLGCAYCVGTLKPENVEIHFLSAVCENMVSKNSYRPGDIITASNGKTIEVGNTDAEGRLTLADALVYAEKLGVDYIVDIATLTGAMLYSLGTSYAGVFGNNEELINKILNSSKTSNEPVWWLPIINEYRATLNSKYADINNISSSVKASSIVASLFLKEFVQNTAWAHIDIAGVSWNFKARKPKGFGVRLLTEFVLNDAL

[17] = biological target: T3, Aminopeptidase N (Plasmodium falciparum FcB1/Columbia, UniProt O96935); experiment: malaria alanyl aminopeptidase activity blockers – biochemical, fluorogenic H-Leu-NHMec substrate, 1536-well (AID 1445); set-up: species or system Plasmodium falciparum 3D7, 3D7
T3 sequence (O96935 whole entry): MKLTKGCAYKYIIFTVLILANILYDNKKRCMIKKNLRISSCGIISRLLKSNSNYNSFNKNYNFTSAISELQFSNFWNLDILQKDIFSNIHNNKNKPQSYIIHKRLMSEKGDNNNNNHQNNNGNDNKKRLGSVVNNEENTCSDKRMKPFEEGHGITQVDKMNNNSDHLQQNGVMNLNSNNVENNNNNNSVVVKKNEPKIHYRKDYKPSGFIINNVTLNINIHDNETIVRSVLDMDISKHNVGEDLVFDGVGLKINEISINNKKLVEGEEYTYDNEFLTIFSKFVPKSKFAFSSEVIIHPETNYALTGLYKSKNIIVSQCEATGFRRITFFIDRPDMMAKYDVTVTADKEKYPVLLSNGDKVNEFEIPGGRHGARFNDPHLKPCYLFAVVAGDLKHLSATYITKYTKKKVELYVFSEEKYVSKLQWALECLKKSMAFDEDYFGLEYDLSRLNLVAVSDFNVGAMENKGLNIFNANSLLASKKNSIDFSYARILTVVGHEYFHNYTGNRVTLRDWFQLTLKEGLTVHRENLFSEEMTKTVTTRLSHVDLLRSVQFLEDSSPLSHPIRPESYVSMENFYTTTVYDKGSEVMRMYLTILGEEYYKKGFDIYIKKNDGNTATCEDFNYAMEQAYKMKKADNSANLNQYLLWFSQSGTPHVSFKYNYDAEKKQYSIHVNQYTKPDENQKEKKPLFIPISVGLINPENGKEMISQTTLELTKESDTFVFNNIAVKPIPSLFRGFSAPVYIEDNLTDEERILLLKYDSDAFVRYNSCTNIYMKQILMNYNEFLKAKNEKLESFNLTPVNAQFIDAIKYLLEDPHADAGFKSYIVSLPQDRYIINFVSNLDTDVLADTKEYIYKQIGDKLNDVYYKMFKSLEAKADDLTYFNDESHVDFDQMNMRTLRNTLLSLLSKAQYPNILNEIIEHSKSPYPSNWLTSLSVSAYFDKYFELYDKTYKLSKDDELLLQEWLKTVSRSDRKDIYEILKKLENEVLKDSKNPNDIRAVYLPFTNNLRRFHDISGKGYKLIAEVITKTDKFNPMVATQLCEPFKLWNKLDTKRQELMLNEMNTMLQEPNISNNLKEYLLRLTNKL

[18] = antiviral protection against BTV-induced cell death – arbovirus, BSR cells, confirmation (AID 1250); assay type: functional;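 also: protection from viral cytopathic effect measured as cell viability by ATP luminescence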
[19] = biological target: G-protein coupled receptor 55 (Homo sapiens, UniProt Q9Y2T6); experiment: selective activators of receptor GPR55 – imaging, U2OS cells, beta-arrestin-GFP redistribution, primary screen (AID 1961); assay type: functional
Sequence of G-protein coupled receptor 55 (Q9Y2T6 whole entry): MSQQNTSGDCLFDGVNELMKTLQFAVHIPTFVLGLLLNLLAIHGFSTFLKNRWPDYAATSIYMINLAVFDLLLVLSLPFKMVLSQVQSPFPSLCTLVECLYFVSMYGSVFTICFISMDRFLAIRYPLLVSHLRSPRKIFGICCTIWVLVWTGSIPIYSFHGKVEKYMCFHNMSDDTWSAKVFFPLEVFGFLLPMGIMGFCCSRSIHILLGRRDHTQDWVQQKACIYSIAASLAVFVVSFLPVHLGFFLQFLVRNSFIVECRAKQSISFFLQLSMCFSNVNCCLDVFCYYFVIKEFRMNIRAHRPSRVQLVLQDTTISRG

[20] = biological target: T4, Hexokinase HKDC1 (Homo sapiens, UniProt Q2TB90); experiment: inhibition of HKDC1 glucose phosphorylation – biochemical, W721R variant, dose response (AID 504729); assay type: functional
T4 sequence (Q2TB90 whole entry): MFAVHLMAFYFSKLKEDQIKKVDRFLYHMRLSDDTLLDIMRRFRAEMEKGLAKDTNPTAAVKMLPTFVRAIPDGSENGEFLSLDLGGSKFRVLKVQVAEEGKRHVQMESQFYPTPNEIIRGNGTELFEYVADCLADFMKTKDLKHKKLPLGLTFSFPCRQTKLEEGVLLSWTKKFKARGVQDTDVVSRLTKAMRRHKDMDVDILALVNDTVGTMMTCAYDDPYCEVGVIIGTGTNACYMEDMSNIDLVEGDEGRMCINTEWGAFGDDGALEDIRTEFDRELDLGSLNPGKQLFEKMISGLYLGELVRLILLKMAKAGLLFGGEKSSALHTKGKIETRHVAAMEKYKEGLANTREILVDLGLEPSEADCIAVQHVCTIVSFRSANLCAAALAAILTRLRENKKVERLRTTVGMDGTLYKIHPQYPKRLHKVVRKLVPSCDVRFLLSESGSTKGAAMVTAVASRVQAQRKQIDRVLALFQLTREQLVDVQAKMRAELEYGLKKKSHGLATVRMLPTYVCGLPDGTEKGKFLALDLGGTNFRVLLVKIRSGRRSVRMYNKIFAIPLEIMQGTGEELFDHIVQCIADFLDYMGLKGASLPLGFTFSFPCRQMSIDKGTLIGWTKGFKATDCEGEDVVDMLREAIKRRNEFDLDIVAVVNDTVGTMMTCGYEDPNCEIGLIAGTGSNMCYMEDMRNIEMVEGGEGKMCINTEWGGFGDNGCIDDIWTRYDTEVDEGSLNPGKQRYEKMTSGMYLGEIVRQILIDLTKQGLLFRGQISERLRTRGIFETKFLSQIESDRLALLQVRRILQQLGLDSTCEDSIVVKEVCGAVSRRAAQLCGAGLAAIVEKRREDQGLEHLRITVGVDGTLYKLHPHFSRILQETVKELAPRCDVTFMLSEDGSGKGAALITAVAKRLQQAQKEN

[21] = M. tuberculosis H37Rv growth inhibitors, H37Rv strain (AID 1626); assay type: functional
[22] = biological target: T5, Mannose-6-phosphate isomerase (Homo sapiens, UniProt P34949); experiment: MPI inhibition at elevated mannose 6-phosphate – biochemical, fluorescence intensity, high mannose 6-phosphate, primary screen (AID 1220)
T5 sequence (P34949 whole entry): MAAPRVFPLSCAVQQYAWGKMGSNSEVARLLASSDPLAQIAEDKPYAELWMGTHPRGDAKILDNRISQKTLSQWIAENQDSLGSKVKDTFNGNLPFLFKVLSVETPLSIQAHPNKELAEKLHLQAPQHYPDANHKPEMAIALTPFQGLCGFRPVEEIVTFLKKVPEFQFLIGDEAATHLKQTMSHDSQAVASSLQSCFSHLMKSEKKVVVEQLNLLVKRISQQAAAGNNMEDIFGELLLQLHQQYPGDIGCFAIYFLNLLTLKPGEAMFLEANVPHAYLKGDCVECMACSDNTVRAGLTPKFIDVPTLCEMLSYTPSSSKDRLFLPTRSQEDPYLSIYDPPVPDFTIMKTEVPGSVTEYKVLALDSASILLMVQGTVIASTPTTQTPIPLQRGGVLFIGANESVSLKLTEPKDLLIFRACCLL

[23] = biological target: T6, Protein RecA (Mycobacterium tuberculosis, UniProt P9WHJ3); experiment: Fluorescence Cell-Free Homogeneous Dose Retest to Identify Inhibitors of RecA-Intein Splicing Activity. [Related pubchem assays (depositor defined):AID2097, AID2223, AID489010, AID492950]; assay type: functional
T6 sequence (P9WHJ3 whole entry): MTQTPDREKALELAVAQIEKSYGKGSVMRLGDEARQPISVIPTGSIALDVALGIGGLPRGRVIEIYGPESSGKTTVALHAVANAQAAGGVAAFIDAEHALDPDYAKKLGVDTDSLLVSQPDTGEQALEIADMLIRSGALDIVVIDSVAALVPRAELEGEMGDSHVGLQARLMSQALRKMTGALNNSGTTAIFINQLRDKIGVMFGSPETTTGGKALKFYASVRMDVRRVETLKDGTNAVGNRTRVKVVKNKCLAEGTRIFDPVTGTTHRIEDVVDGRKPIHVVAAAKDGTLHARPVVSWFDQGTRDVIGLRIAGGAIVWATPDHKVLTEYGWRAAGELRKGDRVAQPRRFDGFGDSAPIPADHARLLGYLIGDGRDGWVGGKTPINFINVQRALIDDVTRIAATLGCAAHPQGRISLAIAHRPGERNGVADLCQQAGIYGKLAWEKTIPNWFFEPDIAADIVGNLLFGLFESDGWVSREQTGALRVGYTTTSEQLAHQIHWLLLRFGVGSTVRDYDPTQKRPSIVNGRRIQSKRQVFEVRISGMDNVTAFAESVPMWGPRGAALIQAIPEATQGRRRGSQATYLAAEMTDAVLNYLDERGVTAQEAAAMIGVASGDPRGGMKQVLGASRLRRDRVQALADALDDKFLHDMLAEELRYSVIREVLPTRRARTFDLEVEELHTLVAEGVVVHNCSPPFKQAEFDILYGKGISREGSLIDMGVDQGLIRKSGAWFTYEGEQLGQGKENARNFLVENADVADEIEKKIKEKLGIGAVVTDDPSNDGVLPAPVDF

Sequence of Glyceraldehyde-3-phosphate dehydrogenase (P04406 whole entry): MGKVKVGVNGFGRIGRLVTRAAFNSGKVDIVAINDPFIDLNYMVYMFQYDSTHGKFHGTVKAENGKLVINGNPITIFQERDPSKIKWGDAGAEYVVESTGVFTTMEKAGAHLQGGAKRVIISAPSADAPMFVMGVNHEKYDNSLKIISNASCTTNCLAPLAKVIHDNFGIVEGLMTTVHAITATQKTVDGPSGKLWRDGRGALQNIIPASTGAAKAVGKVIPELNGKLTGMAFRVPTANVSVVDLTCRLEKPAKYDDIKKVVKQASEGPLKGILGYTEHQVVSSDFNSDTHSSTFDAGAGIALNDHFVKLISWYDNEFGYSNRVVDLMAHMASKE

CN1CCN(C2=C(Cl)C(=O)N(c3cccc(Cl)c3Cl)C2=O)CC1
IC50 [1]: > 100 µM (not active) | IC50 [2]: 2.56 µM (active) | IC50 [3]: 8.74 µM (active)

COc1ccc(Cn2cccc(NC(=O)Nc3cccc(C#N)c3)c2=O)cc1
IC50 [4]: 9.07 µM (active) | IC50 [5]: > 111 µM (not active)

COc1ccc(-n2c(SCC(=O)NCC3CCCO3)nc3c4ccccc4nc-3c2O)cc1 (stereo unspecified)
IC50 [4]: 9.89 µM (active) | IC50 [5]: > 111 µM (not active)

Cc1ccc(-c2nn(CC(=O)NCc3cc(-c4nn(C)c(=O)c5ccccc45)ccc3C)c(=O)c3ccccc23)cc1
EC50 [6]: 8.15 µM (active) | EC50 [7]: 4.25 µM (active) | EC50 [8]: 6.28 µM (active) | EC50 [9]: 6.81 µM (active) | EC50 [10]: 8.99 µM (active) | EC50 [11]: 5.6 µM (inconclusive) | EC50 [12]: 6.29 µM (inconclusive) | Absolute IC50 (XBP1) [13]: 10 µM | EC50 [14]: > 133 µM (inactive)

COc1cc(/C=C2\SC(=S)N(N(C)c3ccccc3)C2=O)ccc1O
IC50 [15]: 13.1 µM (inactive)

CC(C)S(=O)(=O)C1=NSC2=NC(=O)/C(=C\c3ccc(-c4ccccc4)o3)C(=N)N21
IC50 [16]: 12.6 µM (active) | IC50 [17]: 45.6 µM (active) | IC50 [18]: 27.1 µM (active)

Cc1nc2c(c3c1[nH]c1ccccc13)C(O)CC(C)(C)C2 (stereo unspecified)
IC50 [18]: 21.9 µM (active)

COc1ccccc1-n1cnc2cc(NCc3ccccc3O)ccc21
EC50 [19]: 1.51 µM (active)

COP(=O)(OC)c1ccc(NCc2cc(O)ccc2O)cc1
IC50 [20]: 9.51 µM (active)

COc1ccc(/N=C/C2=C(O)c3ccccc3CC2)cc1
IC50 [21]: > 100 µM (active) | IC50 [22]: < 0.391 µM (not active) | EC50 [23]: 18.6 µM (active)
